Experimental data: patent US20160084823A1, “METHODS AND KITS FOR TESTING THE GE[…] AN AGENT” (INSERM (INSTITUT NATIONAL DE LA SANTÉ ET DE LA RECHERCHE …, priority 2013, published 2016)

Tested on: p53 target genes (KIAA0284; PODXL1; RRAD; FHL2; TP53I3)
Assay: p53 genotoxicity assay: RT-QMPSF of p53 target gene induction in EBV-immortalized human lymphocytes (wild type TP53 vs p.R175H)
Settings: 0.3 μM doxorubicin; lymphocytes from a healthy control and from a Li-Fraumeni patient with p.R175H germline mutation; FIG. 2
Description: In the first version of this assay EBV-immortalized human lymphocytes derived from healthy blood donor with wild type TP53 or Li-Fraumeni patients harboring germline heterozygous TP53 mutations are cultured in 24 well plates, during 5 h, with or without the chemicals to test. RNA is then extracted using Nucleospin RNAII kit (Macherey Nagel). […] RT-QMPSF analysis using 5 TP53 target genes and 2 control amplicons are performed on cells treated or not with the chemicals and profiles were compared after normalization on controls amplicons.
In each case, the TP53 genotype of EBV-immortalized lymphocytes was checked by sequencing and QMPSF analyses. EBV-transformed lymphocytes were maintained in RPMI 1640 medium (GIBCO, Invitrogen), supplemented with 10% heat-inactivated fetal bovine serum (Invitrogen) at 37° C. with 5% CO2. […]
After treatment cells were centrifuged, lysed using RA1 reagent from Nucleospin RNAII (Macherey Nagel), RNA was extracted following the manufacturer's instructions and quantified using a ND-1000 UV-Vis Spectrophotometer (NanoDrop technologies). The integrity of the RNA was assessed with the Agilent 2100 Bioanalyzer (Agilent), according to the manufacturer's instructions. […]

With `COc1cccc2c1C(=O)c1c(O)c3c(c(O)c1C2=O)C[C@@](O)(C(=O)CO)C[C@@H]3O[C@H]1C[C@H](N)[C@H](O)[C@H](C)O1` [doxorubicin] the “expression induction of p53 target genes (RT-QMPSF)” value was “showed clearly expression induction of 5 p53 target genes (KIAA0284; PODXL1; RRAD; FHL2; TP53I3) specifically in control lymphocytes”.
